Data as given in PMC10485887, “PET Evaluation of the Novel F-18 Labeled Reversible Radioligand [^18F]GEH200449 for Detection of Monoamine Oxidase-B in the Non-Human Primate Brain” (ACS Chemical Neuroscience, 2023).
Like-named read-outs stand apart in the source and are kept apart here.

Tested on: MAO-B
Type: in vivo, Macaca fascicularis
Details: for 2-TC parameter estimate K1 / 2-TC parameter estimate VT / 2-TC parameter estimate k2 / 2-TC parameter estimate k3 / 2-TC parameter estimate k4 / VT, 2-TC mean / VT, Logan mean: baseline
Description: At start of PET data acquisition, a sterile physiological phosphate buffer solution (pH = 7.4) of [^18F]GEH200449 (injected radioactivity, 107–167 MBq) was injected as a bolus into a sural vein. Emission data were acquired in list mode for 123 min. Arterial blood was sampled as previously described[28] using an automated blood sampling system (ABSS) during the first 3 min of each PET measurement. Subsequently, arterial blood samples (0.7–2.5 mL) were manually drawn at 7, 15, 30, 60, 90, and 120 min after injection of [^18F]GEH200449. After centrifugation, 0.15–1.0 mL of plasma was pipetted and plasma radioactivity was measured in a well counter. In addition, samples were taken directly from the ABSS at 0.5, 1, 1.5, 2, 2.5, and 3 min for cross-calibration with the well counter and for the determination of the plasma-to-blood ratio.
Dynamic images were reconstructed as previously described.[30],[31] Regions of interest (ROIs) for the whole brain and selected regions (caudate nucleus, putamen, thalamus, occipital cortex, prefrontal cortex, and cerebellum) were manually delineated on T1-weighted magnetic resonance images (MRIs) acquired as previously described.[21],[27] PET images were coregistered to the MRIs, and time-activity curves were generated by pooling ROIs for each paired anatomical region and applying the pooled ROIs to the coregistered PET images. Delineation of ROIs and image coregistrations were performed using the software PMOD v. 3.6 (PMOD Technologies, Zurich, Switzerland).
Time curves for regional [^18F]GEH200449 binding at baseline were analyzed by kinetic modeling using 1-TC and 2-TC models,[32] and VT as outcome measures. Akaike information criterion[33] and F statistics were applied to select the preferred model. Regional estimates of VT for [^18F]GEH200449 were also obtained using the Logan linear graphical method[34] with t* fixed at 40 min. The analyses were performed using the kinetic modeling tool in PMOD v. 4.3. Occupancy at [^18F]GEH200449 binding sites was estimated based on regional VT values obtained by the Logan method at baseline and after drug administration according to a graphical procedure described in the literature.[22]

O=c1ccoc2ccc(OCc3ccc([18F])nc3)cc12 [[^18F]GEH200449]
2-TC parameter estimate K1 (NHP #1, CAU): 0.70 mL min-1 cm-3
2-TC parameter estimate VT (NHP #1, CAU): 14.6 mL cm-3
2-TC parameter estimate k2 (NHP #1, CAU): 0.09 min⁻¹
2-TC parameter estimate k3 (NHP #1, CAU): 0.034 min⁻¹
2-TC parameter estimate k4 (NHP #1, CAU): 0.037 min⁻¹
2-TC parameter estimate K1 (NHP #1, CER): 0.47 mL min-1 cm-3
2-TC parameter estimate VT (NHP #1, CER): 11.1 mL cm-3
2-TC parameter estimate k2 (NHP #1, CER): 0.07 min⁻¹
2-TC parameter estimate k3 (NHP #1, CER): 0.021 min⁻¹
2-TC parameter estimate k4 (NHP #1, CER): 0.038 min⁻¹
2-TC parameter estimate K1 (NHP #1, OC): 0.49 mL min-1 cm-3
2-TC parameter estimate VT (NHP #1, OC): 10.8 mL cm-3
2-TC parameter estimate k2 (NHP #1, OC): 0.07 min⁻¹
2-TC parameter estimate k3 (NHP #1, OC): 0.016 min⁻¹
2-TC parameter estimate k4 (NHP #1, OC): 0.024 min⁻¹
2-TC parameter estimate K1 (NHP #1, PFC): 0.57 mL min-1 cm-3
2-TC parameter estimate VT (NHP #1, PFC): 11.0 mL cm-3
2-TC parameter estimate k2 (NHP #1, PFC): 0.09 min⁻¹
2-TC parameter estimate k3 (NHP #1, PFC): 0.028 min⁻¹
2-TC parameter estimate k4 (NHP #1, PFC): 0.037 min⁻¹
2-TC parameter estimate K1 (NHP #1, PUT): 0.71 mL min-1 cm-3
2-TC parameter estimate VT (NHP #1, PUT): 14.1 mL cm-3
2-TC parameter estimate k2 (NHP #1, PUT): 0.09 min⁻¹
2-TC parameter estimate k3 (NHP #1, PUT): 0.025 min⁻¹
2-TC parameter estimate k4 (NHP #1, PUT): 0.029 min⁻¹
2-TC parameter estimate K1 (NHP #1, THA): 0.59 mL min-1 cm-3
2-TC parameter estimate VT (NHP #1, THA): 15.0 mL cm-3
2-TC parameter estimate k2 (NHP #1, THA): 0.06 min⁻¹
2-TC parameter estimate k3 (NHP #1, THA): 0.008 min⁻¹
2-TC parameter estimate k4 (NHP #1, THA): 0.016 min⁻¹
2-TC parameter estimate K1 (NHP #1, WB): 0.51 mL min-1 cm-3
2-TC parameter estimate VT (NHP #1, WB): 10.9 mL cm-3
2-TC parameter estimate k2 (NHP #1, WB): 0.09 min⁻¹
2-TC parameter estimate k3 (NHP #1, WB): 0.025 min⁻¹
2-TC parameter estimate k4 (NHP #1, WB): 0.031 min⁻¹
2-TC parameter estimate K1 (NHP #3, CAU): 0.65 mL min-1 cm-3
2-TC parameter estimate VT (NHP #3, CAU): 19.2 mL cm-3
2-TC parameter estimate k2 (NHP #3, CAU): 0.04 min⁻¹
2-TC parameter estimate k3 (NHP #3, CAU): 0.006 min⁻¹
2-TC parameter estimate k4 (NHP #3, CAU): 0.029 min⁻¹
2-TC parameter estimate K1 (NHP #3, CER): 0.44 mL min-1 cm-3
2-TC parameter estimate VT (NHP #3, CER): 13.9 mL cm-3
2-TC parameter estimate k2 (NHP #3, CER): 0.04 min⁻¹
2-TC parameter estimate k3 (NHP #3, CER): 0.005 min⁻¹
2-TC parameter estimate k4 (NHP #3, CER): 0.016 min⁻¹
2-TC parameter estimate K1 (NHP #3, OC): 0.38 mL min-1 cm-3
2-TC parameter estimate VT (NHP #3, OC): 11.2 mL cm-3
2-TC parameter estimate k2 (NHP #3, OC): 0.04 min⁻¹
2-TC parameter estimate k3 (NHP #3, OC): 0.003 min⁻¹
2-TC parameter estimate k4 (NHP #3, OC): 0.012 min⁻¹
2-TC parameter estimate K1 (NHP #3, PFC): 0.49 mL min-1 cm-3
2-TC parameter estimate VT (NHP #3, PFC): 13.5 mL cm-3
2-TC parameter estimate k2 (NHP #3, PFC): 0.05 min⁻¹
2-TC parameter estimate k3 (NHP #3, PFC): 0.006 min⁻¹
2-TC parameter estimate k4 (NHP #3, PFC): 0.017 min⁻¹
2-TC parameter estimate K1 (NHP #3, PUT): 0.70 mL min-1 cm-3
2-TC parameter estimate VT (NHP #3, PUT): 16.7 mL cm-3
2-TC parameter estimate k2 (NHP #3, PUT): 0.05 min⁻¹
2-TC parameter estimate k3 (NHP #3, PUT): 0.007 min⁻¹
2-TC parameter estimate k4 (NHP #3, PUT): 0.029 min⁻¹
2-TC parameter estimate K1 (NHP #3, THA): 0.58 mL min-1 cm-3
2-TC parameter estimate VT (NHP #3, THA): 18.5 mL cm-3
2-TC parameter estimate k2 (NHP #3, THA): 0.04 min⁻¹
2-TC parameter estimate k3 (NHP #3, THA): 0.007 min⁻¹
2-TC parameter estimate k4 (NHP #3, THA): 0.023 min⁻¹
2-TC parameter estimate K1 (NHP #3, WB): 0.48 mL min-1 cm-3
2-TC parameter estimate VT (NHP #3, WB): 12.6 mL cm-3
2-TC parameter estimate k2 (NHP #3, WB): 0.05 min⁻¹
2-TC parameter estimate k3 (NHP #3, WB): 0.010 min⁻¹
2-TC parameter estimate k4 (NHP #3, WB): 0.029 min⁻¹
2-TC parameter estimate K1 (NHP #4, CAU): 0.50 mL min-1 cm-3
2-TC parameter estimate VT (NHP #4, CAU): 19.9 mL cm-3
2-TC parameter estimate k2 (NHP #4, CAU): 0.05 min⁻¹
2-TC parameter estimate k3 (NHP #4, CAU): 1.087 min⁻¹
2-TC parameter estimate k4 (NHP #4, CAU): 1.229 min⁻¹
2-TC parameter estimate K1 (NHP #4, CER): 0.32 mL min-1 cm-3
2-TC parameter estimate k2 (NHP #4, CER): 0.03 min⁻¹
2-TC parameter estimate k3 (NHP #4, CER): 0.001 min⁻¹
2-TC parameter estimate k4 (NHP #4, CER): 0.000 min⁻¹
2-TC parameter estimate K1 (NHP #4, OC): 0.31 mL min-1 cm-3
2-TC parameter estimate k2 (NHP #4, OC): 0.03 min⁻¹
2-TC parameter estimate k3 (NHP #4, OC): 0.001 min⁻¹
2-TC parameter estimate k4 (NHP #4, OC): 0.000 min⁻¹
2-TC parameter estimate K1 (NHP #4, PFC): 0.37 mL min-1 cm-3
2-TC parameter estimate VT (NHP #4, PFC): 13.9 mL cm-3
2-TC parameter estimate k2 (NHP #4, PFC): 0.03 min⁻¹
2-TC parameter estimate k3 (NHP #4, PFC): 0.002 min⁻¹
2-TC parameter estimate k4 (NHP #4, PFC): 0.013 min⁻¹
2-TC parameter estimate K1 (NHP #4, PUT): 0.57 mL min-1 cm-3
2-TC parameter estimate VT (NHP #4, PUT): 17.2 mL cm-3
2-TC parameter estimate k2 (NHP #4, PUT): 0.04 min⁻¹
2-TC parameter estimate k3 (NHP #4, PUT): 0.006 min⁻¹
2-TC parameter estimate k4 (NHP #4, PUT): 0.034 min⁻¹
2-TC parameter estimate K1 (NHP #4, THA): 0.53 mL min-1 cm-3
2-TC parameter estimate VT (NHP #4, THA): 18.1 mL cm-3
2-TC parameter estimate k2 (NHP #4, THA): 1.24 min⁻¹
2-TC parameter estimate k3 (NHP #4, THA): 4.043 min⁻¹
2-TC parameter estimate k4 (NHP #4, THA): 0.098 min⁻¹
2-TC parameter estimate K1 (NHP #4, WB): 0.34 mL min-1 cm-3
2-TC parameter estimate VT (NHP #4, WB): 13.1 mL cm-3
2-TC parameter estimate k2 (NHP #4, WB): 0.03 min⁻¹
2-TC parameter estimate k3 (NHP #4, WB): 0.003 min⁻¹
2-TC parameter estimate k4 (NHP #4, WB): 0.016 min⁻¹
2-TC parameter estimate K1 (NHP #5, CAU): 0.93 mL min-1 cm-3
2-TC parameter estimate VT (NHP #5, CAU): 34.1 mL cm-3
2-TC parameter estimate k2 (NHP #5, CAU): 0.05 min⁻¹
2-TC parameter estimate k3 (NHP #5, CAU): 0.004 min⁻¹
2-TC parameter estimate k4 (NHP #5, CAU): 0.004 min⁻¹
2-TC parameter estimate K1 (NHP #5, CER): 0.51 mL min-1 cm-3
2-TC parameter estimate VT (NHP #5, CER): 16.0 mL cm-3
2-TC parameter estimate k2 (NHP #5, CER): 0.05 min⁻¹
2-TC parameter estimate k3 (NHP #5, CER): 0.006 min⁻¹
2-TC parameter estimate k4 (NHP #5, CER): 0.011 min⁻¹
2-TC parameter estimate K1 (NHP #5, OC): 0.37 mL min-1 cm-3
2-TC parameter estimate k2 (NHP #5, OC): 0.04 min⁻¹
2-TC parameter estimate k3 (NHP #5, OC): 0.002 min⁻¹
2-TC parameter estimate k4 (NHP #5, OC): 0.000 min⁻¹
2-TC parameter estimate K1 (NHP #5, PFC): 0.61 mL min-1 cm-3
2-TC parameter estimate VT (NHP #5, PFC): 20.4 mL cm-3
2-TC parameter estimate k2 (NHP #5, PFC): 0.05 min⁻¹
2-TC parameter estimate k3 (NHP #5, PFC): 0.004 min⁻¹
2-TC parameter estimate k4 (NHP #5, PFC): 0.006 min⁻¹
2-TC parameter estimate K1 (NHP #5, PUT): 0.86 mL min-1 cm-3
2-TC parameter estimate VT (NHP #5, PUT): 21.1 mL cm-3
2-TC parameter estimate k2 (NHP #5, PUT): 0.06 min⁻¹
2-TC parameter estimate k3 (NHP #5, PUT): 0.007 min⁻¹
2-TC parameter estimate k4 (NHP #5, PUT): 0.012 min⁻¹
2-TC parameter estimate K1 (NHP #5, THA): 0.64 mL min-1 cm-3
2-TC parameter estimate VT (NHP #5, THA): 27.7 mL cm-3
2-TC parameter estimate k2 (NHP #5, THA): 0.04 min⁻¹
2-TC parameter estimate k3 (NHP #5, THA): 0.004 min⁻¹
2-TC parameter estimate k4 (NHP #5, THA): 0.005 min⁻¹
2-TC parameter estimate K1 (NHP #5, WB): 0.50 mL min-1 cm-3
2-TC parameter estimate VT (NHP #5, WB): 17.3 mL cm-3
2-TC parameter estimate k2 (NHP #5, WB): 0.05 min⁻¹
2-TC parameter estimate k3 (NHP #5, WB): 0.005 min⁻¹
2-TC parameter estimate k4 (NHP #5, WB): 0.008 min⁻¹
pattern of regional radioactivity (binding) (baseline PET images and time curves): high binding in the striatum and thalamus, whereas the binding was lower in the cortex and cerebellum
VT, 2-TC mean (caudate nucleus, n = 4): 22.0 mL cm^–3
VT, Logan mean (caudate nucleus, n = 4): 18.9 mL cm^–3
VT, 2-TC mean (cerebellum, n = 3): 13.6^** mL cm^–3
VT, Logan mean (cerebellum, n = 4): 12.6 mL cm^–3
VT, 2-TC mean (occipital cortex, n = 2): 11.0^* mL cm^–3
VT, Logan mean (occipital cortex, n = 4): 11.0 mL cm^–3
VT, 2-TC mean (prefrontal cortex, n = 4): 14.7 mL cm^–3
VT, Logan mean (prefrontal cortex, n = 4): 13.1 mL cm^–3
VT, 2-TC mean (putamen, n = 4): 17.3 mL cm^–3
VT, Logan mean (putamen, n = 4): 16.5 mL cm^–3
VT, 2-TC mean (thalamus, n = 4): 19.8 mL cm^–3
VT, Logan mean (thalamus, n = 4): 17.3 mL cm^–3
VT, 2-TC mean (whole brain, n = 4): 13.5 mL cm^–3
VT, Logan mean (whole brain, n = 4): 12.4 mL cm^–3
